Source: ChEMBL document CHEMBL3885881, “DrugMatrix”

Organism: Rattus norvegicus
Test: DrugMatrix - Regimen: Daily Repeat
Format: toxicity, organism-based, Sprague-Dawley
Design: regimen Daily Repeat, gender Male, age 6-8 weeks
Conditions: in vivo, po, route oral GAVAGE, […]; for ABSOLUTE BASOPHIL / ABSOLUTE EOSINOPHIL / ABSOLUTE LYMPHOCYTE / ABSOLUTE MONOCYTE / ABSOLUTE SEGMENTED NEUTROPHIL / BASOPHIL / EOSINOPHIL / ERYTHROCYTE COUNT / HEMATOCRIT / HEMOGLOBIN / LEUKOCYTE COUNT / LYMPHOCYTE / MEAN CORPUSCULAR HEMOGLOBIN / MEAN CORPUSCULAR HEMOGLOBIN CONCENTRATION / MEAN CORPUSCULAR VOLUME / MONOCYTE / NEUTROPHIL / NUCLEATED RED BLOOD CELLS / PLATELET COUNT: tissue Blood; for ALANINE AMINOTRANSFERASE / ALBUMIN / ALKALINE PHOSPHATASE / ASPARTATE AMINOTRANSFERASE / BLOOD UREA NITROGEN / CARBON DIOXIDE / CHLORIDE / CHOLESTEROL / CREATINE PHOSPHOKINASE / CREATININE / GLUCOSE / LACTATE DEHYDROGENASE / LIPASE / PHOSPHORUS / POTASSIUM / SODIUM / TOTAL BILIRUBIN / TOTAL PROTEIN / URIC ACID: tissue Plasma
[1] = 30 mg/kg, 120 h, dose level Low, time 5 day
[2] = 60 mg/kg, 72 h, dose level High, time 3 day
[3] = 60 mg/kg, 120 h, dose level High, time 5 day

SMILES: Cc1oncc1C(=O)Nc1ccc(C(F)(F)F)cc1 [LEFLUNOMIDE]
- ABSOLUTE BASOPHIL [1]: 0 CELLS/uL
- ABSOLUTE EOSINOPHIL [1]: 25.33 CELLS/uL
- ABSOLUTE LYMPHOCYTE [1]: 6685.33 CELLS/uL
- ABSOLUTE MONOCYTE [1]: 149.33 CELLS/uL
- ABSOLUTE SEGMENTED NEUTROPHIL [1]: 606.67 CELLS/uL
- BASOPHIL [1]: 0%
- EOSINOPHIL [1]: 0.33%
- ERYTHROCYTE COUNT [1]: 4.69 x10E6/uL
- HEMATOCRIT [1]: 30.27%
- HEMOGLOBIN [1]: 11.73 G/DL
- LEUKOCYTE COUNT [1]: 7.47 x10E3/uL
- LYMPHOCYTE [1]: 89.33%
- MEAN CORPUSCULAR HEMOGLOBIN [1]: 25.03 pg
- MEAN CORPUSCULAR HEMOGLOBIN CONCENTRATION [1]: 38.77 G/DL
- MEAN CORPUSCULAR VOLUME [1]: 64.57 fL
- MONOCYTE [1]: 2%
- NEUTROPHIL [1]: 8.33%
- NUCLEATED RED BLOOD CELLS [1]: 0 /100WBC
- PLATELET COUNT [1]: 507.67 x10E3/uL
- ALANINE AMINOTRANSFERASE [1]: 47.33 u/L
- ALBUMIN [1]: 3.93 G/DL
- ALKALINE PHOSPHATASE [1]: 195.67 u/L
- ASPARTATE AMINOTRANSFERASE [1]: 69.33 u/L
- BLOOD UREA NITROGEN [1]: 12.67 mg/dL
- CARBON DIOXIDE [1]: 34 mmol/L
- CHLORIDE [1]: 103 MEQ/L
- CHOLESTEROL [1]: 104.33 mg/dL
- CREATINE PHOSPHOKINASE [1]: 179 u/L
- CREATININE [1]: 0.11 mg/dL
- GLUCOSE [1]: 152.67 mg/dL
- LACTATE DEHYDROGENASE [1]: 60 u/L
- LIPASE [1]: 11.67 u/L
- PHOSPHORUS [1]: 12.6 mg/dL
- POTASSIUM [1]: 5.71 MEQ/L
- SODIUM [1]: 146.27 MEQ/L
- TOTAL BILIRUBIN [1]: 0.1 mg/dL
- TOTAL PROTEIN [1]: 5.9 G/DL
- URIC ACID [1]: 0.27 mg/dL
- ABSOLUTE BASOPHIL [2]: 0 CELLS/uL
- ABSOLUTE EOSINOPHIL [2]: 0 CELLS/uL
- ABSOLUTE LYMPHOCYTE [2]: 5003.33 CELLS/uL
- ABSOLUTE MONOCYTE [2]: 42.67 CELLS/uL
- ABSOLUTE SEGMENTED NEUTROPHIL [2]: 720.67 CELLS/uL
- BASOPHIL [2]: 0%
- EOSINOPHIL [2]: 0%
- ERYTHROCYTE COUNT [2]: 5.59 x10E6/uL
- HEMATOCRIT [2]: 34.57%
- HEMOGLOBIN [2]: 13.67 G/DL
- LEUKOCYTE COUNT [2]: 5.77 x10E3/uL
- LYMPHOCYTE [2]: 89%
- MEAN CORPUSCULAR HEMOGLOBIN [2]: 24.5 pg
- MEAN CORPUSCULAR HEMOGLOBIN CONCENTRATION [2]: 39.53 G/DL
- MEAN CORPUSCULAR VOLUME [2]: 61.87 fL
- MONOCYTE [2]: 0.67%
- NEUTROPHIL [2]: 10.33%
- NUCLEATED RED BLOOD CELLS [2]: 0 /100WBC
- PLATELET COUNT [2]: 824 x10E3/uL
- ALANINE AMINOTRANSFERASE [2]: 39.67 u/L
- ALBUMIN [2]: 3.1 G/DL
- ALKALINE PHOSPHATASE [2]: 225.67 u/L
- ASPARTATE AMINOTRANSFERASE [2]: 100.33 u/L
- BLOOD UREA NITROGEN [2]: 14 mg/dL
- CARBON DIOXIDE [2]: 30 mmol/L
- CHLORIDE [2]: 98.67 MEQ/L
- CHOLESTEROL [2]: 115.33 mg/dL
- CREATINE PHOSPHOKINASE [2]: 296.67 u/L
- CREATININE [2]: 0.11 mg/dL
- GLUCOSE [2]: 170 mg/dL
- LACTATE DEHYDROGENASE [2]: 93.67 u/L
- LIPASE [2]: 11.33 u/L
- PHOSPHORUS [2]: 10.73 mg/dL
- POTASSIUM [2]: 4.3 MEQ/L
- SODIUM [2]: 142.97 MEQ/L
- TOTAL BILIRUBIN [2]: 0.17 mg/dL
- TOTAL PROTEIN [2]: 4.97 G/DL
- URIC ACID [2]: 0.43 mg/dL
- ABSOLUTE BASOPHIL [3]: 0 CELLS/uL
- ABSOLUTE EOSINOPHIL [3]: 23 CELLS/uL
- ABSOLUTE LYMPHOCYTE [3]: 3653 CELLS/uL
- ABSOLUTE MONOCYTE [3]: 48 CELLS/uL
- ABSOLUTE SEGMENTED NEUTROPHIL [3]: 376 CELLS/uL
- BASOPHIL [3]: 0%
- EOSINOPHIL [3]: 0.67%
- ERYTHROCYTE COUNT [3]: 6.19 x10E6/uL
- HEMATOCRIT [3]: 39%
- HEMOGLOBIN [3]: 15.23 G/DL
- LEUKOCYTE COUNT [3]: 4.1 x10E3/uL
- LYMPHOCYTE [3]: 89.33%
- MEAN CORPUSCULAR HEMOGLOBIN [3]: 24.77 pg
- MEAN CORPUSCULAR HEMOGLOBIN CONCENTRATION [3]: 39.07 G/DL
- MEAN CORPUSCULAR VOLUME [3]: 63.4 fL
- MONOCYTE [3]: 1.33%
- NEUTROPHIL [3]: 8.67%
- NUCLEATED RED BLOOD CELLS [3]: 0 /100WBC
- PLATELET COUNT [3]: 441.33 x10E3/uL
- ALANINE AMINOTRANSFERASE [3]: 25.67 u/L
- ALBUMIN [3]: 3.73 G/DL
- ALKALINE PHOSPHATASE [3]: 203 u/L
- ASPARTATE AMINOTRANSFERASE [3]: 75.67 u/L
- BLOOD UREA NITROGEN [3]: 64.67 mg/dL
- CARBON DIOXIDE [3]: 24.33 mmol/L
- CHLORIDE [3]: 98.5 MEQ/L
- CHOLESTEROL [3]: 138.67 mg/dL
- CREATINE PHOSPHOKINASE [3]: 227.67 u/L
- CREATININE [3]: 0.33 mg/dL
- GLUCOSE [3]: 145.67 mg/dL
- LACTATE DEHYDROGENASE [3]: 137 u/L
- LIPASE [3]: 22.67 u/L
- PHOSPHORUS [3]: 11.8 mg/dL
- POTASSIUM [3]: 5.41 MEQ/L
- SODIUM [3]: 137.7 MEQ/L
- TOTAL BILIRUBIN [3]: 0.27 mg/dL
- TOTAL PROTEIN [3]: 6.53 G/DL
- URIC ACID [3]: 0.93 mg/dL
